Source: US4676822A, “Fluid fertilizers containing thiophosphoryl triamide” (Tennessee Valley Authority, priority 1986, dated 1987)
Values joined by “and” are separate entries in the source; they are usually repeats but may differ in a detail not shown here. Identical values can stand only once.

Legend:
urease [1] = assay: Urease inhibition tests with TPTA and PPDA in fluid fertilizers, banded soil system (urease-active Hastings silt loam); type: biochemical; details: for average % urea unhydrolyzed, 3 days / % urea unhydrolyzed, 3 days: 3 days incubation at 25° C.; for average % urea unhydrolyzed, 3 days / average % urea unhydrolyzed, 6 days: average of A and B samples; for % urea unhydrolyzed, 3 days / % urea unhydrolyzed, 6 days: single sample; for average % urea unhydrolyzed, 6 days / % urea unhydrolyzed, 6 days: 6 days incubation at 25° C.
Description: Samples of UAN (31-0-0), 1 g, and (36-0-0), 0.66 g containing approximately 0.38 g urea and 0.041 g of TPTA were prepared by dissolving solid TPTA in 31-0-0 and 36-0-0 of the compositions shown in Table I, supra. Identical samples containing PPDA and without either inhibitor were prepared to serve as references for purposes of data comparison.
Urease-active soil (Hastings silt loam) was moistened to a moisture content of 20 percent and preincubated at room temperature for two days. Plexiglass containers (6×6×6 cm) were one-half filled with soil and packed to a bulk density of 1.0 g/cm^3. The 31-0-0 and 36-0-0 samples containing TPTA and PPDA as well as samples containing no inhibitor were distributed evenly in a narrow band 6 cm along the soil surface. The containers were filled with soil and again packed to a bulk density of 1.0 g/cm^3. The containers were incubated at 25° C. for the desired reaction period. After incubation the soil from each container was thoroughly mixed, and a 10-g sample was extracted with 100 mL of 2M KCl containing 5 ppm phenylmercuric acetate to prevent urea hydrolysis during handling [L. A. Douglass and J. M. Bremner, Soil Sci. Soc. Am. Proc. 34, 859-862 (1970)]. The urea in the extracts was determined colorimetrically as a measure of unhydrolyzed urea. The results of three-day and six-day incubation tests are illustrated in Table II infra; and as noted supra, plotted in FIG. 1.

[2] = Stability of TPTA in solid mixtures with urea (HPLC); type: physicochemical; details: solid 90% urea-10% TPTA, P(H2O) 12.73 mm Hg
Description: Solid samples (0.25 g) of urea-TPTA mixtures (90 weight percent urea-10 weight precent TPTA) were weighed into a 10-mL beaker, carefully spread into an even layer in the bottom of the beaker, and heated in a forced draft oven at temperatures of 42°, 50°, and 60° C. Samples were contained in desiccators inside the oven, each desiccator conataining a sodium hydroxide solution to yield a partial pressure of water of 12.73 mm Hg at the temperature employed. After heating, the samples were analyzed by High Performance Liquid Chromatography (HPLC) to determine the percent of the original TPTA remaining.
The calculated decomposition rate for 25° C., which was determined from an Arrhenius plot of the 42°, 50°, and 60° C. data are also illustrated in FIG. 2, supra. From a perusal of FIG. 2 it is clearly evident that the shelf life of urea-TPTA mixtures is of extremely short duration.

[3] = Stability of TPTA in UAN (31-0-0) at 25° C. (HPLC); type: physicochemical; details: for % original TPTA remaining: UAN (31-0-0)
Description: A sample containing 1 weight percent TPTA was prepared by dissolving 1 g of TPTA in 99 g of 31-0-0 having the composition given in Table I, supra, and an initial pH of 8.1. The sample was maintained at room temperature (25° C.) and analyzed periodically for TPTA by HPLC. The results of the kinetic study are given in Table V infra and as noted supra plotted in FIG. 4 along with the first-order rate equation (solid line in FIG. 4) which was determined by linear regression.

[4] = Stability of TPTA in UAN (36-0-0) at 25° C. (HPLC); type: physicochemical; details: for % original TPTA remaining: UAN (36-0-0)
Description: A sample containing 1 weight percent TPTA was prepared by dissolving 1 g of TPTA in 99 g of 36-0-0 having the composition given in Table I, supra, and an initial pH of 7.4. The sample was maintained at room temperature (25° C.) and analyzed periodically for TPTA by HPLC.
The results of this kinetic study are given in Table V supra, and as noted supra, plotted in FIG. 4 along with the first-order rate equation (solid line in FIG. 4) which was determined by linear regression.

urease [5] = details: prior art; cited from earlier work
[6] = compared with PPDA; cited from earlier work
[7] = 25° C., water partial pressure 12.73 mm of Hg; cited from earlier work

Compound: NP(N)(N)=S [TPTA, thiophosphoryl triamide]
- average % urea unhydrolyzed, 3 days (urease [1]; UAN (31-0-0)): 97.90%
- % urea unhydrolyzed, 3 days (urease [1]; UAN (31-0-0)): 101.90% and 93.89%
- average % urea unhydrolyzed, 6 days (urease [1]; UAN (31-0-0)): 48.48%
- % urea unhydrolyzed, 6 days (urease [1]; UAN (31-0-0)): 47.75% and 49.21%
- average % urea unhydrolyzed, 3 days (urease [1]; UAN (36-0-0)): 88% and 87.63%
- % urea unhydrolyzed, 3 days (urease [1]; UAN (36-0-0)): 91.03% and 84.24%
- average % urea unhydrolyzed, 6 days (urease [1]; UAN (36-0-0)): 47.82% and 48%
- % urea unhydrolyzed, 6 days (urease [1]; UAN (36-0-0)): 44.37% and 51.28%
- amount of unhydrolyzed urea in the soil relative to PPDA treatment (urease [1]; after six days): approximately four times that of the PPDA treatment
- % of original TPTA remaining ([2]; 42° C., heating time 0.00 hr): 100.00%
- % of original TPTA remaining ([2]; 42° C., heating time 2.00 hr): 94.78%
- % of original TPTA remaining ([2]; 42° C., heating time 4.00 hr): 83.48%
- % of original TPTA remaining ([2]; 42° C., heating time 5.00 hr): 79.80%
- % of original TPTA remaining ([2]; 42° C., heating time 7.00 hr): 60.03%
- % of original TPTA remaining ([2]; 42° C., heating time 9.0 hr): 53.44%
- % of original TPTA remaining ([2]; 42° C., heating time 9.75 hr): 42.06%
- % of original TPTA remaining ([2]; 42° C., heating time 14.25 hr): 30.69%
- % of original TPTA remaining ([2]; 42° C., heating time 16.00 hr): 8.69%
- % of original TPTA remaining ([2]; 42° C., heating time 18.00 hr): 5.11%
- % of original TPTA remaining ([2]; 50° C., heating time 0.00 hr): 100.00%
- % of original TPTA remaining ([2]; 50° C., heating time 1.01 hr): 97.17%
- % of original TPTA remaining ([2]; 50° C., heating time 2.00 hr): 93.80%
- % of original TPTA remaining ([2]; 50° C., heating time 3.00 hr): 85.92%
- % of original TPTA remaining ([2]; 50° C., heating time 4.00 hr): 71.31%
- % of original TPTA remaining ([2]; 50° C., heating time 5.00 hr): 53.40%
- % of original TPTA remaining ([2]; 50° C., heating time 6.00 hr): 34.26%
- % of original TPTA remaining ([2]; 50° C., heating time 7.00 hr): 23.40%
- % of original TPTA remaining ([2]; 50° C., heating time 8.00 hr): 10.56%
- % of original TPTA remaining ([2]; 60° C., heating time 0.00 hr): 100.00%
- % of original TPTA remaining ([2]; 60° C., heating time 1.00 hr): 94.07%
- % of original TPTA remaining ([2]; 60° C., heating time 2.00 hr): 71.98%
- % of original TPTA remaining ([2]; 60° C., heating time 3.00 hr): 32.26%
- % of original TPTA remaining ([2]; 60° C., heating time 4.00 hr): 3.46%
- % of original TPTA remaining ([2]; 60° C., heating time 5.00 hr): 0.00%
- % of original TPTA remaining ([2]; 60° C., heating time 6.00 hr): 0.00%
- reaction half-life in the 31-0-0 solution ([3]; 1 wt % TPTA, initial pH 8.1, first-order): 93 days
- % original TPTA remaining ([3]; time 0.00 days): 100.00%
- % original TPTA remaining ([3]; time 1.22 days): 100.00%
- % original TPTA remaining ([3]; time 5.22 days): 97.60%
- % original TPTA remaining ([3]; time 7.13 days): 100.00%
- % original TPTA remaining ([3]; time 9.09 days): 99.55%
- % original TPTA remaining ([3]; time 12.07 days): 101.78%
- % original TPTA remaining ([3]; time 14.22 days): 100.47%
- % original TPTA remaining ([3]; time 16.01 days, 23054.4 min): 95.59% and 95.43%
- % original TPTA remaining ([3]; time 20.05 days): 89.05%
- % original TPTA remaining ([3]; time 26.05 days): 95.55%
- % original TPTA remaining ([3]; time 40.17 days): 79.49%
- % original TPTA remaining ([3]; time 47.14 days): 79.62%
- % original TPTA remaining ([3]; time 61.08 days): 74.35%
- % original TPTA remaining ([3]; time 64.99 days): 63.03%
- % original TPTA remaining ([3]; time 71.70 days): 68.55%
- % original TPTA remaining ([3]; time 82.71 days, 119102 min): 43.85%
- % original TPTA remaining ([3]; time 90.71 days, 130622 min): 52.17%
- % original TPTA remaining ([3]; time 96.75 days): 51.55%
- % original TPTA remaining ([3]; time 103.71 days): 52.04%
- % original TPTA remaining ([3]; time 111.71 days): 47.46%
- reaction half-life in the 36-0-0 solution ([4]; 1 wt % TPTA, initial pH 7.4, first-order): 43 days
- % original TPTA remaining ([4]; time 0.00 days): 100.00%
- % original TPTA remaining ([4]; time 1.22 days): 100.00%
- % original TPTA remaining ([4]; time 5.22 days): 93.60%
- % original TPTA remaining ([4]; time 7.13 days): 97.15%
- % original TPTA remaining ([4]; time 9.09 days): 81.12%
- % original TPTA remaining ([4]; time 12.07 days): 82.21%
- % original TPTA remaining ([4]; time 14.22 days): 84.30%
- % original TPTA remaining ([4]; time 16.01 days, 23054.4 min): 79.90% and 73.86%
- % original TPTA remaining ([4]; time 20.05 days): 70.87%
- % original TPTA remaining ([4]; time 26.05 days): 72.43%
- % original TPTA remaining ([4]; time 40.17 days): 43.14%
- % original TPTA remaining ([4]; time 47.14 days): 42.94%
- % original TPTA remaining ([4]; time 61.08 days): 32.25%
- % original TPTA remaining ([4]; time 64.99 days): 41.41%
- % original TPTA remaining ([4]; time 71.70 days): 31.14%
- % original TPTA remaining ([4]; time 82.71 days, 119102 min): 29.60%
- % original TPTA remaining ([4]; time 90.71 days, 130622 min): 20.67%
- % original TPTA remaining ([4]; time 96.75 days): 25.07%
- % original TPTA remaining ([4]; time 103.71 days): 21.73%
- % original TPTA remaining ([4]; time 111.71 days): 13.09%
- urease inhibition (in words) (urease [5]): comparable and in some cases more effective than PPDA
- stability in urea melt [6]: substantially more stable in urea melt than PPDA
- reaction half-life in solid mixtures with urea [7]: 1.6 days
